Molecular target: P. falciparum apicoplast DNA polymerase (Pf-apPOL) (Plasmodium falciparum, UniProt Q8ILY1)
Experiment: Fluorescence-based high-throughput DNA polymerase assay (molecular beacon), primary screen and dose-response
Format: biochemical
Experimental: The HT assay employs a molecular beacon, a stem-loop DNA template with a Cy3 dye and the Black Hole Quencher on the 3′ and 5′ ends of the DNA, respectively. Pf-apPOL concentration is based on a calculated absorptivity of ε280 = 56750 M^−1 cm^−1. Reactions were carried out at 25 °C, using Corning 3575 […] (well-volume, 20 µL). Assays testing for compound inhibition composed of reaction buffer (pH 7.9 in 50 mM potassium acetate, 20 mM Tris-acetate and 10 mM magnesium acetate), Pf-apPOL (20 nM), DNA substrate (20 nM), dNTPs (6 µM), and compound (10 µM in DMSO). The DNA and nucleotide substrates (dNTPs) were at concentrations of 20 nM and 6 µM, respectively, in the assay. Pf-apPOL was incubated in the reaction buffer with dNTPs and the compound of interest (10 µM, in the assay) at 25 °C for 10 min. The DNA substrate was then added and the reaction was allowed to proceed for 90 min at 25 °C.
Each assay plate contained 16 negative controls (no Pf-apPOL, DMSO present) and 16 positive controls (Pf-apPOL present, no DMSO). The fluorescence of each well was determined using a BioTek Synergy Neo fluorescence plate reader using excitation and emission wavelengths of 555 and 570 nm, respectively.
In the above, Min is the average of fluorescence emission of the negative controls (substrate only), Max the average fluorescence emission from the positive controls (enzyme + substrate), and Test the emission from the assays in the presence of compounds (enzyme + compound + substrates). […] […] The IC50 of each compound was determined using Equation (2): (2) IC50= Vmax/(1+ (I/IC50)^n)
In the above, n measures cooperativity, with n > 1 indicating synergistic binding of more than a single molecule of the compound.
To identify apPOL inhibitors we utilised our previously developed high-throughput DNA polymerase assay. The HT assay is based on a molecular beacon DNA template that forms a stem-loop with a Cy3 dye and the Black Hole Quencher on the 3′ and 5′ ends of the DNA, respectively. DNA polymerase activity extends an annealed primer through the stem region, displacing the fluorophore from the quencher, thereby increasing its fluorescence (Figure 1(A)). The assay accurately recapitulates the kinetic behaviour of apPOL, as measured through more conventional low-throughput gel-based assays. The Z′ factor for the assay described here was 0.9 across all plates (data not shown).
Figure 1. High-throughput screening. (A) The fluorescent-based DNA polymerase assay used to screen the compound libraries. The DNA template strand is a hairpin loop with a primer annealed to the loop. The 3’ end of the primer is 11 bases away from the 6 bp duplex. Strand displacement activity of the DNA polymerase separates the Cy3 dye from the Black hole quencher leading to an increase in fluorescent signal. (B) The high-throughput assay workflow. The DNA polymerase is incubated with […] compound for 10 min prior to addition of the hairpin substrate. The reaction is quenched at 3 different time points and the fluorescent signal is measured and % inhibition is determined using the provided equation.

Chain of P. falciparum apicoplast DNA polymerase (Pf-apPOL) (Q8ILY1 entry or part of it): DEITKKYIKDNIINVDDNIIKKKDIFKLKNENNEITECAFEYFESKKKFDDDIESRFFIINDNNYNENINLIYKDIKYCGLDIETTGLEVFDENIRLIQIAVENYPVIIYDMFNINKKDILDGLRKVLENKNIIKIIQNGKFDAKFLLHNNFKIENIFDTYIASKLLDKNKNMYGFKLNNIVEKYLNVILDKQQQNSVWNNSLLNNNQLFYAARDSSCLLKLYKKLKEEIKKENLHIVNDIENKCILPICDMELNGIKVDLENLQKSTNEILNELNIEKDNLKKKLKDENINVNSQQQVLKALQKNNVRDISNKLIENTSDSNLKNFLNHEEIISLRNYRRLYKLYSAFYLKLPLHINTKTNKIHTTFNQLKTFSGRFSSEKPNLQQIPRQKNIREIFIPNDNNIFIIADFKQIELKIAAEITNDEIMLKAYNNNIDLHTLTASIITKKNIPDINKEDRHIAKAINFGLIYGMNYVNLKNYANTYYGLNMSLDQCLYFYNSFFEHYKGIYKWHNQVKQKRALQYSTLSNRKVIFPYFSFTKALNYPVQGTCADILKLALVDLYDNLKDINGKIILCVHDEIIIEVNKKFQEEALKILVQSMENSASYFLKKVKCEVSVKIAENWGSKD

With `CS(=O)(=O)c1cccc(C(=O)Nc2nnc(-c3ccno3)o2)c1` [KU0171319] the “DNA Pol” value (186 hits, value of the hit list (primary screen); unit not given; 90 min, 10 µM) was 45, the “% inhibition Apo pol 10'” value (DRC-1; 10'; concentration 2.5) was 6.657% and the “% inhibition Apo pol 10'” value (DRC-1; 10'; concentration 5) was 14.8177%. For the same molecule, the “% inhibition Apo pol 10'” value (DRC-1; 10'; concentration 10) was 36.7259%, the “% inhibition Apo pol 10'” value (DRC-1; 10'; concentration 20) was 44.3674% and the “% inhibition Apo pol 10'” value (DRC-1; 10'; concentration 40) was 60.0862%. The “% inhibition Apo pol 10'” value (DRC-1; 10'; concentration 80) was 69.7787%, the “% inhibition Apol 90'” value (DRC-1; 90'; concentration 2.5) was -3.363% and the “% inhibition Apol 90'” value (DRC-1; 90'; concentration 5) was 1.476%. For the same molecule, the “% inhibition Apol 90'” value (DRC-1; 90'; concentration 10) was 14.1125%, the “% inhibition Apol 90'” value (DRC-1; 90'; concentration 20) was 18.6112% and the “% inhibition Apol 90'” value (DRC-1; 90'; concentration 40) was 31.6807%. The “% inhibition Apol 90'” value (DRC-1; 90'; concentration 80) was 46.8389%, the “% inhibition apPOL 180'” value (DRC-1; 180'; concentration 2.5) was -9.274% and the “% inhibition apPOL 180'” value (DRC-1; 180'; concentration 5) was -6.316%. The “% inhibition apPOL 180'” value (DRC-1; 180'; concentration 10) was 0.8537%, the “% inhibition apPOL 180'” value (DRC-1; 180'; concentration 20) was 2.328% and the “% inhibition apPOL 180'” value (DRC-1; 180'; concentration 40) was 13.3473%. The “% inhibition apPOL 180'” value (DRC-1; 180'; concentration 80) was 27.8767%, the “% inhibition Apo pol 5'” value (DRC-2, 5', concentration 2.5) was 8% and the “% inhibition Apo pol 5'” value (DRC-2, 5', concentration 5) was 13%. The “% inhibition Apo pol 5'” value (DRC-2, 5', concentration 10) was 24%, the “% inhibition Apo pol 5'” value (DRC-2, 5', concentration 20) was 29% and the “% inhibition Apo pol 5'” value (DRC-2, 5', concentration 40) was 32%. The “% inhibition Apo pol 5'” value (DRC-2, 5', concentration 80) was 22%, the “% inhibition Apol 40'” value (DRC-2, 40', concentration 2.5) was 1.54% and the “% inhibition Apol 40'” value (DRC-2, 40', concentration 5) was 4.6%. The “% inhibition Apol 40'” value (DRC-2, 40', concentration 10) was 13%, the “% inhibition Apol 40'” value (DRC-2, 40', concentration 20) was 17% and the “% inhibition Apol 40'” value (DRC-2, 40', concentration 40) was 28%. For the same molecule, the “% inhibition Apol 40'” value (DRC-2, 40', concentration 80) was 35%, the “% inhibition ApPOL 90'” value (DRC-2, 90', concentration 2.5) was -0.356% and the “% inhibition ApPOL 90'” value (DRC-2, 90', concentration 5) was 0.372%. For the same molecule, the “% inhibition ApPOL 90'” value (DRC-2, 90', concentration 10) was 8%, the “% inhibition ApPOL 90'” value (DRC-2, 90', concentration 20) was 11% and the “% inhibition ApPOL 90'” value (DRC-2, 90', concentration 40) was 21%. For the same molecule, the “% inhibition ApPOL 90'” value (DRC-2, 90', concentration 80) was 34%, the “% inhibition apPOL 180'” value (DRC-2, 180', concentration 2.5) was -5.4% and the “% inhibition apPOL 180'” value (DRC-2, 180', concentration 5) was -8%. For the same molecule, the “% inhibition apPOL 180'” value (DRC-2, 180', concentration 10) was -3%, the “% inhibition apPOL 180'” value (DRC-2, 180', concentration 20) was -2.43% and the “% inhibition apPOL 180'” value (DRC-2, 180', concentration 40) was 7.43%. For the same molecule, the “% inhibition apPOL 180'” value (DRC-2, 180', concentration 80) was 26%, the “% inhibition Apo pol 5'” value (DRC-2; 5'; concentration 2.5) was 8% and the “% inhibition Apo pol 5'” value (DRC-2; 5'; concentration 5) was 13%. The “% inhibition Apol 40'” value (DRC-2; 40'; concentration 10) was 13%, the “% inhibition ApPOL 90'” value (DRC-2; 90'; concentration 10) was 8% and the “DNA Pol” value (primary screen value, 'DNA Pol' only; 90 min, 10 µM) was 45.

Reference: article PMC9090415, “Discovery of small molecule inhibitors of Plasmodium falciparum apicoplast DNA polymerase” (Journal of Enzyme Inhibition and Medicinal Chemistry, 2022)
